Assay results taken from patent US20130237590A1, “ASSESSING THYROID NEOPLASMS” (MAYO FOUNDATION FOR MEDICAL EDUCATION AND RESEARCH, priority 2010, published 2013).

Legend:
miR-122 [1] = assay: miR-122 quantitation in FTC-133 cells; assay type: cell-based
Protocol: (§1) To generate stable lines, cells were seeded at 1×10^6 cells per 100 mm petri dish and transfected 24 hours later in multiples of six, with 10 μg each of vector or PPFP using LT-1 (Minus Bio, Madison, Wis.). For the generation of DN-PPARγ and miR stable cells, the DN-PPARγ construct (Reddi et al., Expression of the PAX8/PPARγ Fusion Protein Is Associated with Decreased Neovascularization In Vivo: Impact on Tumorigenesis and Disease Prognosis, Genes and Cancer, (2010)), mmu-Null, and mmu-miR122-EGFP constructs (Cellbio labs) were used. After 72 hours, WRO-Vector, WRO-PPFP, WRO-DN-PPARγ, FTC-Vector, and FTC−PPFP cells were obtained by selection in media containing 400 μg/mL of G418 (Invitrogen) with media changes every 72 hours. WRO-miR-Null and WRO-miR-122 cells were generated using 2.5 μg/mL puromycin selection. Pools of cells were harvested and analyzed for mRNA and microRNA expression by quantitative RT-PCR and for polypeptide expression by Western blotting.
(§2) RNA from each group of cells was isolated using TriZol Reagent (Invitrogen). […] PAX8/PPARγ fusion gene was detected by PCR using 5 μL of cDNA and a sense primer from exon 7 of PAX8 (5′-CGCGGATCCGCATT-GACTCACAGAGCA-3; SEQ ID NO:1; see, also, GenBank Accession No. NM_013953 and GI No.81295803) and antisense primer from exon 1 of PPARγ1 (5′-[…]-3; SEQ ID NO:2; GenBank Accession No. NM_138712 and GI No. 116284369). […]

CD-31 = assay: microvessel density by CD-31 staining of WRO xenografts; assay type: in vivo, athymic nude mice; conditions: WRO xenografts compared to control xenografts
Protocol: Four tumors per group were formalin-fixed, paraffin-embedded, and individual sections stained with CD-31 (sc-1506-R, Santa Cruz, 1:200 dilution) specific antibody for 30-60 minutes and counterstained with hematoxylin. Antigen retrieval was done in EDTA at […] for 30 minutes after deparaffinization. Sections were blocked with peroxidase for 5 minutes and protein for 5 minutes. Antibody staining was visualized using Dako Envision plus System for 15 minutes followed by DAB chromogen for 10 minutes. Separate tumor sections were stained with hematoxylin and eosin to visualize tumor histology.
Stained slides were scanned using the Hamamatsu NanoZoomer (Bacus Laboratories, Inc., Chicago, Ill.). Digital images composed of multiple tiles (4096×64 pixel) were captured at 20× magnification. Image analysis was conducted as described elsewhere (Monahan et al., Endocrinology 150:4386-4394 (2009)). For each tumor section, the relative signal intensity from 10 randomly chosen fields (205×300 pixel) was quantified by histogram analysis (Adobe Photoshop). Data was expressed as signal intensity (signal pixel count divided by total image pixel count).

ADAM-17 [2] = assay: ADAM-17 transcript levels in immortalized thyrocytes; assay type: cell-based; conditions: immortalized thyrocytes (N-Thy-ori cells) expressing PPFP
PPARγ [3] = assay: PPRE luciferase reporter assay in WRO cells; assay type: cell-based
Protocol: (§3) Cells (0.3×10^6 cells/well) in six well plates were transfected using LT-1 reagent (Mirus, Madison Wis.) with 10 ng of Renilla (Promega, Madison, Wis.) and […] of PPRE-Aco-Luc reporter in triplicate. After 24 hours, cells were lysed and assayed using the dual luciferase kit (Promega). Data was calculated as a ratio of the luciferase to renilla expression and plotted as fold-change compared to vector. To test the effect of GW9662 on PPARγ activity, cells were treated 18 hours post transfection with either 2 μL DMSO or 10 μM GW9662 (a potent antagonist of PPARγ) for 24 hours prior to harvest and assay.

FTC-133 cells = assay: in vivo xenograft tumor formation assay, FTC-133 stable cells; set-up: species or system athymic nude mice; conditions: FTC-133-PPFP cells (PTEN-null); by 4 weeks; vs vector only
Protocol: (§4) Stable cells (10^7) were resuspended in 100 μL of growth media and injected subcutaneously into both flanks of 5 week-old athymic nude mice (Fox1^nu/nu, Harlan, Indianapolis, Ind.). At least three mice were injected per group. Tumor size was determined weekly by measuring tumor length (L), width (W), and height (H) using vernier calipers (Vtumor=0.5236 LWH).

WRO cells [4] = assay: in vivo xenograft tumor formation assay, WRO stable cells; set-up: species or system athymic nude mice; conditions: WRO-PPFP cells, by 5 weeks
Protocol: as §4

WRO cells [5] = assay: in vitro cell growth of stable WRO cells (absorbance at 490 nm); assay type: cell-based; conditions: stable WRO cells compared to WRO-vector cells; 72 hours
Protocol: as §1

PPARγ [6] = assay: PPRE luciferase reporter assay in FTC-133 cells; assay type: cell-based; conditions: FTC-133-PPFP cells
Protocol: as §3

ADAM-17 [7] = assay: ADAM-17 transcript levels in WRO cells; assay type: cell-based; conditions: stable WRO cells
KTC-3 cells = assay: in vivo xenograft tumor formation assay, KTC-3 anaplastic thyroid cancer cells; set-up: species or system athymic nude mice; conditions: KTC-3-PPFP anaplastic thyroid cancer cells; in 6 weeks
Protocol: (§5) To generate stable lines, cells were seeded at 1×10^6 cells per 100 mm petri dish and transfected 24 hours later in multiples of six, with 10 μg each of vector or PPFP using LT-1 (Minus Bio, Madison, Wis.). After 72 hours, ARO-Vector, ARO-PPFP, DRO-Vector, DRO-PPFP, FRO-Vector, FRO-PPFP, KTC-3-Vector, and KTC-3-PPFP cells were obtained by selection in media containing 400 μg/mL of G418 (Invitrogen) with media changes every 72 hours. Pools of cells were harvested and analyzed for PPFP expression by reverse transcriptase PCR.
as §4, with “(Fox1^nu/nu” for “(Fox1^nu/nu,”

FRO cells = assay: in vivo xenograft tumor formation assay, FRO anaplastic thyroid cancer cells; set-up: species or system athymic nude mice; conditions: FRO-PPFP anaplastic thyroid cancer cells; in 5 weeks
Protocol: as §5
as §4, with “(Fox1^nu/nu” for “(Fox1^nu/nu,”

DRO cells = assay: in vivo xenograft tumor formation assay, DRO melanoma cells; set-up: species or system athymic nude mice; conditions: DRO-PPFP melanoma cells; by 6 weeks
Protocol: as §5
as §4, with “(Fox1^nu/nu” for “(Fox1^nu/nu,”

ARO cells = assay: in vivo xenograft tumor formation assay, ARO colon cancer cells; set-up: species or system athymic nude mice; conditions: ARO-PPFP colon cancer cells; by 4 weeks
Protocol: as §5
as §4, with “(Fox1^nu/nu” for “(Fox1^nu/nu,”

miR-122 [8] = assay: miR-122 quantitation in WRO xenografts; assay type: in vivo, athymic nude mice
Protocol: RNA from each group of cells was isolated using TriZol Reagent (Invitrogen). RNA (1 μg) was reverse transcribed with oligo-dT primers using Message Sensor RT kit (Ambion, Austin, Tex.). PAX8/PPARγ fusion gene was detected by PCR using 5 μL of cDNA and a sense primer from exon 7 of PAX8 (5′-CGCGGATCCGCATT-GACTCACAGAGCA-3; SEQ ID NO:1; see, also, GenBank Accession No. NM_013953 and GI No.81295803) and antisense primer from exon 1 of PPARγ1 (5′-[…]-3; SEQ ID NO:2; GenBank Accession No. NM_138712 and GI No. 116284369). Glyceraldehyde 3-phosphate dehydrogenase (GAPDH) was amplified using kit primers. Xenografts were harvested at weeks 1 and 2 post induction and homogenized in T-PER (Pierce, Rockford, Ill.). RNA was extracted, and RT-PCR was performed for PPFP and GAPDH. Annealing temperature for PPFP and GAPDH was 55° C. for 30 seconds. miR-122 status was verified using TaqMan microRNA assays (Applied Biosystems) as per the manufacturer's instructions.
as §4

miR-122 [9] = assay: miR-122 quantitation by quantitative RT-PCR in WRO cells; assay type: cell-based; conditions: WRO-vector cells treated with 10 μM GW9662 for 24 hours
Protocol: as §1, §2

PTEN: PTEN transiently expressed from an expression plasmid in FTC-133 cells [reference compound]
increase in miR-122 expression (miR-122 [1]; transient expression of PTEN in FTC-133(+PPFP) cells vs vector only cells): 77 fold

PPFP: PAX8/PPARγ fusion protein, constitutively expressed from a CMV promoter construct in stably transfected cancer cell lines
decrease in microvessel density (CD-31 staining) (CD-31): 2.1 fold | reduction of ADAM-17 mRNA expression (ADAM-17 [2]): not | inhibition of PPARγ activity (activation of PPRE) (PPARγ [3]; stable WRO cells vs vector): 29% | inhibition of xenograft tumor progression (FTC-133 cells): < 2 fold | inhibition of xenograft tumor progression (WRO cells [4]): 72% | inhibition of xenograft tumor progression (WRO cells [4]; vs vector only): 9 fold | decrease (inhibition) of in vitro cell growth (WRO cells [5]): 19% | inhibition of activation of PPRE (PPARγ [6]): 69% | miR-122 expression (miR-122 [1]; FTC-133(+PPFP) cells (PTEN-null)): did not increase miR-122 expression | reduction of ADAM-17 mRNA expression (ADAM-17 [7]): 50% | inhibition of xenograft tumor progression (KTC-3 cells): 77.2% | inhibition of xenograft tumor progression (FRO cells): 80.1% | inhibition of xenograft tumor progression (DRO cells): 57.5% | inhibition of xenograft tumor progression (ARO cells): 39.5% | increase in miR-122 expression (miR-122 [8]): 40.0 (p < 0.054) fold

O=C(Nc1ccccc1)c1cc([N+](=O)[O-])ccc1Cl [GW9662, reference compound]
PPRE activity (PPARγ [3]; WRO-vector cells treated with 10 μM GW9662 for 24 hours): significant decrease in PPRE activity | miR-122 expression (miR-122 [9]): not accompanied by increased miR-122 expression
